Experimental data: patent publication US11365410B2, “Production and monitoring of metabolites in cells” (President and Fellows of Harvard College, priority 2015, dated 2022)

Tests used:
[1] = system: prpR-based 3HP biosensor (pcs, prpC, prpR); experiment: prpR-based 3HP biosensor characterization; format: cell-based, E. coli
Text: (§1) According to a first aspect, 3-HP is transformed into 2-methylcitrate in the presence of a 2-methylcitrate sensor. The resulting system is a 3-HP biosensor. The transcriptional regulator prpR from E. coli is used to control gene expression in proportion to the concentration of 2-methylcitrate inside the cell. This inducible system has been described previously with the aim of sensing propionate—a distinct chemical from 3HP (WO 2007005837 A3, http://www.ncbi.nlm.nih.gov/pubmed/16269719). The endogenous enzyme, 2-methylcitrate synthase (prpC), and the heterologous multifunctional enzyme propionyl-CoA synthase (pcs) from the carbon fixation pathway of Chloroflexus aurantiacus (see Mattozzi, M., Ziesack, M., Voges, M. J., Silver, P. A. and Way, J. C. (2013) Expression of the sub-pathways of the Chloroflexus aurantiacus 3-hydroxypropionate carbon fixation bicycle in E. coli: Toward horizontal transfer of autotrophic growth. Metab Eng, 16, 130-139 hereby incorporated by reference in its entirety) are used to produce 2-methylcitrate from 3-HP. Together the system of three genes (pcs, prpC, prpR) comprises the prpR-based 3HP biosensor (see FIG. 15A). […] As a result of this linkage, 3-HP concentration controls expression of green fluorescent protein (GFP). […] The proportion of 2-methylcitrate produced in this way is proportional to the amount of 3-HP inside the cell. The expression of the controlled gene is thus a measurement of intracellular 3-HP concentration.
DH5α cells doubly transformed with plasmids pPro24-GFP and pJKR-PCS, or plasmids pJKR-H-acuR and pJKR-PCSfrag-ACH, were exposed to increasing concentrations of 3-HP and monitored for GFP expression. Cells were grown overnight to saturation before being diluted 1:100 into fresh LB media and incubated at 200 RPM and 37° C. After four hours, 150 μl of the log-phase cells were transferred to 96-well plates and 3HP was added to the appropriate final concentration. Each inoculation and induction was performed in triplicate. Strains lacking the biosensor helper plasmids were included to reveal that the biosensor activation was indeed dependent on the presence of the helper plasmids. In the case of the end-point measurements, fluorescence was measured 16 hours after 3-HP addition with a Biotek HT plate reader (excitation 485/20, emission 528/20). Time course data was collected over a 16 hour period on the same plate reader at 37° C. with fast shaking and 10 minute measurement intervals. Fluorescence was normalized by optical density. Fold induction was determined by dividing the fluorescence obtained at the current induction level by the fluorescence obtained without induction. Error bars represent the 95% confidence interval derived from the standard error of the mean.

prpR (E. coli) = experiment: prpR-based 3HP biosensor induction (indirect, via 2-methylcitrate); format: cell-based; conditions: 12 mM 3-HP; with pcs and prpC
Text: as §1, with “The expression of the controlled gene is thus a measurement of intracellular 3-HP concentration.” left out

acuR = experiment: acuR-based 3HP biosensor induction (indirect, via acrylate); format: cell-based, Rhodobacter sphaeroides; conditions: 10 mM 3HP; with pcs^Δ3 and ach
Method: Metab Eng, 16, 130-139 hereby incorporated by reference in its entirety). All three reactions are useful for a prpR-based biosensor, but for the acuR-based biosensor, accumulation of acrylyl-CoA rather than propionyl-CoA is necessary. […] Accordingly, the domain responsible for conversion of acrylyl-CoA to propionyl-CoA was removed while preserving the activity of the other two domains. […] A 90-fold increase in fluorescence was obtained when the acuR-based biosensor was induced with 10 mM 3HP. […] Fluorescence remained at background levels for greater than 16 hours in the absence of pcs^Δ3 and ach (see FIG. 17).
Plasmids were constructed using Gibson isothermal assembly methods (see Gibson, D. G., Young, L., Chuang, R. Y., Venter, J. C., Hutchison, C. A., 3rd and Smith, H. O. (2009) Enzymatic assembly of DNA molecules up to several hundred kilobases. Nat Methods, 6, 343-345 hereby incorporated by reference in its entirety) and cloned into DH5α electrocompetent cells purchased from New England Biolabs. Biosynthesis of product molecules was carried out in either BL21 (DE3) or DH5α. The prpR-based 3HP biosensor was implemented as a two-plasmid system. The first plasmid is pPro24-GFP (Addgene plasmid #18880), which expresses GFPuv under the control of the methyl-citrate responsive transcription factor, prpR, on a pBR322 origin of replication providing β-lactam resistance. […]

O=C(O)CCO [3-HP, 3-hydroxypropionate]
time to half-maximal fluorescent response ([1]; 3-HP induction): 5 h
time to reach 90% induction ([1]; 3-HP induction): approximately 8 hours
fluorescent response, fold greater than uninduced fluorescence ([1]; induced with 12 mM 3-HP): 2.4 fold
response of prpR sensor alone ([1]; without helper enzyme pcs): cannot detect
Fluorescent response relative to uninduced (prpR (E. coli)): 2.4 fold
Increase in fluorescence (acuR): 90 fold
